Reference: patent publication US9512107B2, “Therapeutically active compositions and their methods of use” (Agios Pharmaceuticals, Inc., priority 2012, dated 2016)
Changes are numbered by the printed parent chain. Where two headings read alike, the source gives them in different places.

How the values were obtained:
[1] = test system: U87MG pLVX-IDH2 R140Q-neo cells; assay: U87MG pLVX-IDH2 R140Q-neo cell based assay, 2-HG in media by LC-MS at 48 hours; settings: Homo sapiens, U-87 MG
How it was run: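 U87MG cells stably expressing IDH2 R140Q were seeded overnight, then exposed to compound at 0.2% final DMSO at 37 °C, 5% CO2. 2-HG in the medium was quantified by LC-MS at 48 h. Growth inhibition was read by CellTiter-Glo luminescence at 72 h.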

[2] = molecular target: T1, IDH2 R140Q (Homo sapiens, UniProt P48735, R140Q); assay: IDH2 R140Q enzymatic assay (cofactor depletion, similar format); type: biochemical
T1 sequence (P48735 40-452 R140Q): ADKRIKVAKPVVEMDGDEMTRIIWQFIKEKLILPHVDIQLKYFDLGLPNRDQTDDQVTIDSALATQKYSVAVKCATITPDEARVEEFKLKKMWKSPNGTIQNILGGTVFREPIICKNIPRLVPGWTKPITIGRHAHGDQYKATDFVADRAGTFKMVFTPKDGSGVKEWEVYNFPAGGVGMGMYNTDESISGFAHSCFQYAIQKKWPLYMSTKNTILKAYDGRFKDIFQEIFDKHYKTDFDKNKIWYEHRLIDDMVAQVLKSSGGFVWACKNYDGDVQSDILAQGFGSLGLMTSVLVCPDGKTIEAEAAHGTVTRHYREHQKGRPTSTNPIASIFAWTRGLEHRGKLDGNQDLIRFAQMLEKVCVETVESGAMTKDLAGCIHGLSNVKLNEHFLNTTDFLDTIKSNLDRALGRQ

[3] = molecular target: T2, IDH2 R172K (Homo sapiens, UniProt P48735, R172K); assay: IDH2 R172K enzymatic assay (NADPH cofactor depletion, diaphorase/resazurin readout); type: biochemical; settings: read-out: Enz R172K
T2 sequence (P48735 40-452 R172K): T1 sequence (P48735 40-452 R140Q) with Q101R, R133K
How it was run: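 Compound was preincubated with IDH2 R172K for 1 h at room temperature, then the reaction was started with substrate mix containing 50 μM NADPH and 6.3 mM α-KG. After another 1 h at room temperature, stop mix with diaphorase and resazurin consumed the remaining NADPH, and resorufin fluorescence was read.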

Row | Structure (SMILES) | IC50 [1] | IC50 ([2]; read-out: Enz R140Q) | IC50 [3] | IC50 ([2]; Enz R140Q)
1 | N#Cc1cc(Nc2nc(NC3C4COCC43)nc(-c3cccc(C(F)(F)F)n3)n2)ccn1 (stereo not drawn) [Compound 505, 4-[4-(3-Oxa-bicyclo[3.1.0]hex-6-ylamino)-6-(6-trifluoromethyl-pyridin-2-yl)-[1,3,5]triazin-2-ylamino]-pyridine-2-carbonitrile] | < 0.1 µM | 0.1 to 1 µM | 0.1 to 1 µM | 
2 | CC1CC1Nc1nc(Nc2ccnc(C(F)(F)F)c2)nc(-c2ccccn2)n1 (stereo not drawn) [Compound 516, N-(2-Methyl-cyclopropyl)-6-pyridin-2-yl-N′-(2-trifluoromethyl-pyridin-4-yl)-[1,3,5]triazine-2,4-diamine] | < 0.1 µM | 0.1 to 1 µM | < 0.1 µM | 
3 | CC(C)(O)CNc1nc(Nc2ccnc(C(F)(F)F)c2)nc(-c2cccc(C(F)(F)F)n2)n1 [Compound 409, 2-methyl-1-(4-(6-(trifluoromethyl)pyridin-2-yl)-6-(2-(trifluoromethyl)pyridin-4-ylamino)-1,3,5-triazin-2-ylamino)propan-2-ol] | < 0.1 µM |  | 0.1 to 1 µM | 0.1 to 1 µM
4 | FC(F)(F)CNc1nc(Nc2ccncc2)nc(-c2ccccc2)n1 [Compound 215, 6-phenyl-N^2-(pyridin-4-yl)-N^4-(2,2,2-trifluoroethyl)-1,3,5-triazine-2,4-diamine] | 0.1 to 1 µM | < 0.1 µM | 1 to 10 µM | 
5 | FC(F)(F)c1cc(Nc2nc(NC3CCOCC3)nc(-c3cccc(C(F)(F)F)n3)n2)ccn1 [Compound 587, N2-(tetrahydro-2H-pyran-4-yl)-6-(6-(trifluoromethyl)pyridin-2-yl)-N4-(2-(trifluoromethyl)pyridin-4-yl)-1,3,5-triazine-2,4-diamine] | < 0.1 µM | 0.1 to 1 µM | < 0.1 µM | 
6 | CC(C)(C)Nc1nc(Nc2cc(Cl)cc(S(C)(=O)=O)c2)nc(-c2cccc(C(C)(F)F)n2)n1 [Compound 615, N2-(tert-butyl)-N4-(3-chloro-5-(methylsulfonyl)phenyl)-6-(6-(1,1-difluoroethyl)pyridin-2-yl)-1,3,5-triazine-2,4-diamine] | < 0.1 µM | 0.1 to 1 µM | 0.1 to 1 µM | 
7 | Fc1ccc(Nc2nc(NC3[C@H]4COC[C@@H]34)nc(-c3ccccc3F)n2)cn1 (stereo partly drawn) [Compound 637, 6-(2-Fluoro-phenyl)-N-(6-fluoro-pyridin-3-yl)-N′-(3-oxa-bicyclo[3.1.0]hex-6-yl)-[1,3,5]triazine-2,4-diamine] | < 0.1 µM | 0.1 to 1 µM | 0.1 to 1 µM | 
8 | CC(C)(CO)CNc1nc(Nc2ccnc(C(F)(F)F)c2)nc(-c2cccc(Cl)n2)n1 [Compound 495, 3-[4-(6-Chloro-pyridin-2-yl)-6-(2-trifluoromethyl-pyridin-4-ylamino)-[1,3,5]triazin-2-ylamino]-2,2-dimethyl-propan-1-ol] | < 0.1 µM | 0.1 to 1 µM | < 0.1 µM | 
9 | COCCNc1nc(Nc2ccccc2)nc(-c2ccccc2)n1 [Compound 225, N^2-(2-methoxyethyl)-N^4,6-diphenyl-1,3,5-triazine-2,4-diamine] | 0.1 to 1 µM | < 0.1 µM | 1 to 10 µM | 
10 | CCNc1nc(Nc2ccncc2)nc(-c2ccccc2)n1 [Compound 248, N^2-ethyl-6-phenyl-N^4-(pyridin-4-yl)-1,3,5-triazine-2,4-diamine] | 0.1 to 1 µM | < 0.1 µM | 1 to 10 µM | 
11 | CC1(CNc2nc(Nc3ccncc3)nc(-c3ccccc3)n2)CCCO1 (stereo not drawn) [Compound 221, N^2-((2-methyltetrahydrofuran-2-yl)methyl)-6-phenyl-N^4-(pyridin-4-yl)-1,3,5-triazine-2,4-diamine] | 0.1 to 1 µM | 0.1 to 1 µM | 1 to 10 µM | 
12 | CCOCCNc1nc(Nc2ccncc2)nc(-c2ccccc2)n1 [Compound 262, N^2-(2-ethoxyethyl)-6-phenyl-N^4-(pyridin-4-yl)-1,3,5-triazine-2,4-diamine] | 0.1 to 1 µM | 0.1 to 1 µM | 1 to 10 µM | 
13 | CC(C)(C)C(=O)Nc1nc(Nc2ccccc2)nc(-c2ccccc2)n1 [Compound 183, N-(4-phenyl-6-(phenylamino)-1,3,5-triazin-2-yl)pivalamide] | < 0.1 µM | < 0.1 µM | 0.1 to 1 µM | 
14 | CC(C)(C)Nc1nc(Nc2ccnc(C(C)(F)F)c2)nc(-c2cccc(C(C)(F)F)n2)n1 [Compound 596, N2-(tert-butyl)-6-(6-(1,1-difluoroethyl)pyridin-2-yl)-N4-(2-(1,1-difluoroethyl)pyridin-4-yl)-1,3,5-triazine-2,4-diamine] | < 0.1 µM | 0.1 to 1 µM | < 0.1 µM | 
15 | CC(C)Nc1nc(Nc2cccc(C(C)(C)O)c2)nc(-c2cccc(C(F)(F)F)n2)n1 [Compound 542, 2-{3-[4-Isopropylamino-6-(6-trifluoromethyl-pyridin-2-yl)-[1,3,5]triazin-2-ylamino]-phenyl}-propan-2-ol] | < 0.1 µM | 0.1 to 1 µM | < 0.1 µM | 

Continued, in another order:

Row | IC50 [1] | IC50 ([2]; read-out: Enz R140Q) | IC50 [3] | Structure (SMILES) | IC50 ([2]; Enz R140Q)
16 | 0.1 to 1 µM | < 0.1 µM | 1 to 10 µM | CC(C)Nc1nc(Nc2ccncc2)nc(-c2ccccc2)n1 [Compound 129, N^2-isopropyl-6-phenyl-N^4-(pyridin-4-yl)-1,3,5-triazine-2,4-diamine] | 
17 | < 0.1 µM | 0.1 to 1 µM | < 0.1 µM | CC(C)Nc1nc(Nc2ccnc(C(C)(C)C#N)c2)nc(-c2cccc(C(C)(F)F)n2)n1 [Compound 677, 2-(4-{4-[6-(1,1-Difluoro-ethyl)-pyridin-2-yl]-6-isopropylamino-[1,3,5]triazin-2-ylamino}-pyridin-2-yl)-2-methyl-propionitrile] | 
18 | 0.1 to 1 µM | < 0.1 µM | 1 to 10 µM | CC(C)Nc1nc(Nc2ccc(F)cc2F)nc(-c2ccccc2)n1 [Compound 140] | 
19 | < 0.1 µM | 0.1 to 1 µM | < 0.1 µM | CC(C)Nc1nc(Nc2cncc(C(F)(F)F)c2)nc(-c2cccc(N)n2)n1 [Compound 468, 6-(6-Amino-pyridin-2-yl)-N-isopropyl-N′-(5-trifluoromethyl-pyridin-3-yl)-[1,3,5]triazine-2,4-diamine] | 
20 | < 0.1 µM | 0.1 to 1 µM | 0.1 to 1 µM | Fc1cncc(Nc2nc(NC3[C@H]4COC[C@@H]34)nc(-c3ccccc3F)n2)c1 (stereo partly drawn) [Compound 638, 6-(2-Fluoro-phenyl)-N-(5-fluoro-pyridin-3-yl)-N′-(3-oxa-bicyclo[3.1.0]hex-6-yl)-[1,3,5]triazine-2,4-diamine] | 
21 | < 0.1 µM | 0.1 to 1 µM | 0.1 to 1 µM | CC(C)Nc1nc(Nc2cncc(F)c2)nc(-c2ncccc2F)n1 [Compound 456, N-(5-Fluoro-pyridin-3-yl)-6-(3-fluoro-pyridin-2-yl)-N′-isopropyl-[1,3,5]triazine-2,4-diamine] | 
22 | < 0.1 µM | 0.1 to 1 µM | < 0.1 µM | CC(C)Nc1nc(Nc2ccnc(F)c2)nc(-c2nccc(C(F)(F)F)n2)n1 [Compound 537, N-(2-Fluoro-pyridin-4-yl)-N′-isopropyl-6-(4-trifluoromethyl-pyrimidin-2-yl)-[1,3,5]triazine-2,4-diamine] | 
23 | 0.1 to 1 µM | < 0.1 µM | 0.1 to 1 µM | CC(C)Nc1nc(Nc2ccc(Cl)cc2)nc(-c2ccccc2)n1 [Compound 143] | 
